In BindingDB's records for patent US10301272 (Phenex Pharmaceuticals, 2019):

Target: T1, Isoform 2 of Nuclear receptor ROR-gamma (RORgT) (Homo sapiens, UniProt P51449)
T1 sequence (P51449 whole entry): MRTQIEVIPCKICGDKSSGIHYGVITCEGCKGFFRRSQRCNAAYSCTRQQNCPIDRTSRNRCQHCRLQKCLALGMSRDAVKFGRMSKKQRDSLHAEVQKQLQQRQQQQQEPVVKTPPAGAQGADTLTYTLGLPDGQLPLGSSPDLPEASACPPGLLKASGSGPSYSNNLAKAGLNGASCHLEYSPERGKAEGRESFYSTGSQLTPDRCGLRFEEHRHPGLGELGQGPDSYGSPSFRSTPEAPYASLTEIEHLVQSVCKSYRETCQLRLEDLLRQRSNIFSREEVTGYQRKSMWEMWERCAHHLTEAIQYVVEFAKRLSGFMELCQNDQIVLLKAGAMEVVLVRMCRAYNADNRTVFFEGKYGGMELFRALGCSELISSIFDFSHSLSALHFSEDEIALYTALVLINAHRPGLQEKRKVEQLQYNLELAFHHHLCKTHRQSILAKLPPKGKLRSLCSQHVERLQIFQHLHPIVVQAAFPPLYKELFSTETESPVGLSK
Assay: RORgamma Gal4 Reporter Gene Assay (FRET)
Method: Determination of a ligand mediated Gal4 promoter driven transactivation to quantify ligand binding to RORγ was performed as follows: DNA encoding three different RORγ protein fragments was cloned into vector pCMV-BD (Stratagene). Expression was under control of a CMV promoter and as fusion to the DNA-binding domain of the yeast protein GAL4. Other vectors used were pFR-Luc (Stratagene) as regulated reporter plasmid. pFR-Luc contains a synthetic promoter with five tandem repeats of the yeast GAL4 binding sites that control expression of the Photinus pyralis (American firefly) luciferase gene. In order to improve experimental accuracy the plasmid pRL-CMV was cotransfected. pRL-CMV contains the constitutive CMV promoter, controlling the expression of the Renilla reniformis luciferase. […] The medium is supplemented with 10% fetal bovine serum, 0.1 mM nonessential amino acids, 1 mM sodium pyruvate, 1% Glutamax and 100 units Penicilin/[…] per mL at 37° C. in 5% CO2.For the assay, […] cells were plated per well in 96 well plates in 100 μL per well, incubated over night at 37° C. in 5% CO2. […] About 4 h after addition of the transfection solution, fresh Minimal Essential Medium (MEM, same composition as used for plating cells, but without serum) was added.

Row | SMILES | IC50
1 | CC(C)(C)NS(=O)(=O)c1ccc(-c2sc(C(=O)NC3CCOCC3)nc2CC2CCCCC2)cc1C(F)(F)F [US10301272, Example 9] | 63.1 nM
2 | CC(C)(O)CNC(=O)c1nc(CC2CCC2)c(-c2ccc(S(=O)(=O)NC(C)(C)C)c(Cl)c2OC(F)F)s1 [US10301272, Example 21/1] | 251 nM
3 | CCOC(=O)c1nc(Cc2ccccc2)c(-c2ccc(S(=O)(=O)NC(C)(C)C)c3ccccc23)s1 [US10301272, Example 202] | 63.1 nM
